Legend:
[1] = biological target: T1, TYK2-JH2 (aa 575-869, in-house) protein (Homo sapiens, UniProt P29597); test: TYK2-JH2 biochemical assay (HTRF probe displacement); assay type: binding; conditions: Biochemical assay; read-out: TYK2-JH2 IC50
T1 construct: TYK2-JH2 (aa 575-869, in-house) protein; made in house
Outline: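 Recombinant TYK2-JH2 (0.2 nM) was pre-incubated 0.5 h at room temperature with compounds (10 doses, 5-fold dilution; 500× DMSO stocks from 500 uM) in 20 mM HEPES pH 7.5, 10 mM MgCl2, 0.005% BSA, 2 mM DTT, 0.015% Brij-35. Probe displacement was read by HTRF (ex337, em620/665 nm); IC50 from four-parameter logistic fit.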

[2] = test system: JAK2, TYK2/p-STAT4 (Tyr693) activated by IL-12 in NK-92 cell line; test: IL-12-JAK2, TYK2/p-STAT4 (Tyr693) inhibition IC50 cellular assay; assay type: cell-based; conditions: for Selectivity fold (TYK2/JAK2): Cellular assay, pSTAT5/GM-CSF IC50 vs pSTAT4/IL-12 IC50; for IC50: NK92, Cellular assay, read-out: pSTAT4/IL-12 IC50
Outline: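 NK-92 cells were starved overnight without IL-2 and preincubated 1 h at 37° C with compound (8 doses, 10000–0.61 nM, 4-fold, 0.2% DMSO). They were then stimulated with IL-12 (40 ng/ml final) for 30 min. Lysate p-STAT4 (Tyr693) was read by AlphaLISA SureFire; IC50 from four-parameter logistic fit.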

pSTAT5/GM-CSF = pSTAT5/GM-CSF cellular assay (JAK2 selectivity); assay type: cell-based

T1 sequence (P29597 575-869): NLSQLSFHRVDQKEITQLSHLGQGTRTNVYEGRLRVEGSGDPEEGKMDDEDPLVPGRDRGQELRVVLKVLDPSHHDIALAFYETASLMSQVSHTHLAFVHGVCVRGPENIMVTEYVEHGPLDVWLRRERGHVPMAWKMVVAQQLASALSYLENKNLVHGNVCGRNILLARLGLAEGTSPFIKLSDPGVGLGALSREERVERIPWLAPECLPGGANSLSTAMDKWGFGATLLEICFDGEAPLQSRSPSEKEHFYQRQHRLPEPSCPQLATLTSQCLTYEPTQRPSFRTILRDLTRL

SMILES: CC(=O)Nc1cc(Nc2cc(OCC3CC3)cc(S(C)(=O)=O)n2)c(-c2ccc(N3C[C@@H](C)O[C@@H](C)C3)cn2)cn1 [Example C5, N-(4′-((4-(cyclopropylmethoxy)-6-(methylsulfonyl)pyridin-2-yl)amino)-5-((cis)-2,6-dimethylmorpholino)-[2,3′-bipyridin]-6′-yl)acetamide]
- IC50 [1]: 0.032 nM
- Selectivity fold (TYK2/JAK2) [2]: >456 fold
- IC50 [2]: 21.9 nM
- IC50 (pSTAT5/GM-CSF): > 10000 nM

SMILES: CC(=O)Nc1cc(Nc2cc(OCC3CC3)cc(S(C)(=O)=O)c2)c(-c2ccc(N3C[C@@H](C)O[C@@H](C)C3)cn2)cn1 [Example C6, N-(4′-((3-(cyclopropylmethoxy)-5-(methylsulfonyl)phenyl)amino)-5-((cis)-2,6-dimethylmorpholino)-[2,3′-bipyridin]-6′-yl)acetamide]
- IC50 [1]: 0.054 nM
- Selectivity fold (TYK2/JAK2) [2]: >381 fold
- IC50 [2]: 26 nM
- IC50 (pSTAT5/GM-CSF): > 10000 nM

SMILES: COc1cc(Nc2cc(NC(C)=O)ncc2-c2ccc(N3C[C@@H](C)O[C@@H](C)C3)cn2)nc(S(C)(=O)=O)c1 [Example C9, N-(5-(cis-2,6-dimethylmorpholino)-4′-((4-methoxy-6-(methylsulfonyl)pyridin-2-yl)amino)-[2,3′-bipyridin]-6′-yl)acetamide]
- IC50 [1]: 0.027 nM
- Selectivity fold (TYK2/JAK2) [2]: >14880 fold
- IC50 [2]: 0.672 nM
- IC50 (pSTAT5/GM-CSF): > 10000 nM

SMILES: [2H]C([2H])([2H])Oc1cc(Nc2cc(NC(C)=O)ncc2-c2ccc(N3C[C@@H](C)O[C@@H](C)C3)cn2)nc(S(C)(=O)=O)c1 [Example C17, N-(5-((cis)-2,6-dimethylmorpholino)-4′-((4-(methoxy-d3)-6-(methylsulfonyl)pyridin-2-yl)amino)-[2,3′-bipyridin]-6′-yl)acetamide]
- IC50 [1]: 0.022 nM
- Selectivity fold (TYK2/JAK2) [2]: >16528 fold
- IC50 [2]: 0.605 nM
- IC50 (pSTAT5/GM-CSF): > 10000 nM

SMILES: COC(C)c1cc(Nc2cc(NC(C)=O)ncc2-c2ccc(N3C[C@@H](C)O[C@@H](C)C3)cn2)nc(S(C)(=O)=O)c1 (stereo partly drawn) [Example C18, N-(5-(cis-2,6-dimethylmorpholino)-4′-((4-(1-methoxyethyl)-6-(methylsulfonyl)pyridin-2-yl)amino)-[2,3′-bipyridin]-6′-yl)acetamide]
- IC50 [1]: 0.023 nM
- Selectivity fold (TYK2/JAK2) [2]: 7625 fold
- IC50 [2]: 0.639 nM
- IC50 (pSTAT5/GM-CSF): 4870 nM

SMILES: CC(=O)Nc1cc(Nc2cc(C3CCOCC3)cc(S(C)(=O)=O)n2)c(-c2ccc(N3C[C@@H](C)O[C@@H](C)C3)cn2)cn1 [Example C21, N-(5-(cis-2,6-dimethylmorpholino)-4′-((6-(methylsulfonyl)-4-(tetrahydro-2H-pyran-4-yl)pyridin-2-yl)amino)-[2,3′-bipyridin]-6′-yl)acetamide]
- IC50 [1]: 0.024 nM
- Selectivity fold (TYK2/JAK2) [2]: >10050 fold
- IC50 [2]: 0.995 nM
- IC50 (pSTAT5/GM-CSF): > 10000 nM

SMILES: CC(=O)Nc1cc(Nc2cncc(S(C)(=O)=O)n2)c(-c2ccc(N3C[C@@H](C)O[C@@H](C)C3)cn2)cn1 [Example C22, N-(5-(cis-2,6-dimethylmorpholino)-4′-((6-(methylsulfonyl)pyrazin-2-yl)amino)-[2,3′-bipyridin]-6′-yl)acetamide]
- IC50 [1]: 0.023 nM
- Selectivity fold (TYK2/JAK2) [2]: >21008 fold
- IC50 [2]: 0.476 nM
- IC50 (pSTAT5/GM-CSF): > 10000 nM

SMILES: CC(=O)Nc1cc(Nc2cc(N3CCOC[C@@H]3C)cc(S(C)(=O)=O)n2)c(-c2ccc(N3C[C@@H](C)O[C@@H](C)C3)cn2)cn1 [Example C23, N-(5-(cis-2,6-dimethylmorpholino)-4′-((4-((S)-3-methylmorpholino)-6-(methylsulfon-yl)pyridin-2-yl)amino)-[2,3′-bipyridin]-6′-yl)ace-tamide]
- IC50 [1]: 0.022 nM
- Selectivity fold (TYK2/JAK2) [2]: 4126 fold
- IC50 [2]: 0.63 nM
- IC50 (pSTAT5/GM-CSF): 2600 nM

SMILES: COC1CN(c2cc(Nc3cc(NC(C)=O)ncc3-c3ccc(N4C[C@@H](C)O[C@@H](C)C4)cn3)nc(S(C)(=O)=O)c2)C1 [Example C25, N-(5-(cis-2,6-dimethyl-morpholino)-4′-((4-(3-methoxy-azetidin-1-yl)-6-(methylsulfonyl)pyridin-2-yl)amino)-[2,3′-bipyridin]-6′-yl)acetamide]
- IC50 [1]: 0.037 nM
- Selectivity fold (TYK2/JAK2) [2]: 1288 fold
- IC50 [2]: 0.827 nM
- IC50 (pSTAT5/GM-CSF): 1060 nM

SMILES: COCCOc1ccc(-c2cnc(NC(C)=O)cc2Nc2cccc(S(C)(=O)=O)n2)nc1 [Example D1, N-(5-(2-methoxyethoxy)-4′-((6-(methylsulfonyl)pyridin-2-yl)amino)-[2,3′-bipyridin]-6′-yl)acetamide]
- IC50 [1]: 0.047 nM
- Selectivity fold (TYK2/JAK2) [2]: >39840 fold
- IC50 [2]: 0.251 nM
- IC50 (pSTAT5/GM-CSF): > 10000 nM

SMILES: COCCOc1ccc(-c2cnc(NC(C)=O)cc2Nc2cccc(S(C)(=O)=O)c2)nc1 [Example D2, N-(5-(2-methoxyethoxy)-4′-((3-(methylsulfonyl)phenyl)amino)-[2,3′-bipyridin]-6′-yl)acetamide]
- IC50 [1]: 0.038 nM
- Selectivity fold (TYK2/JAK2) [2]: >641 fold
- IC50 [2]: 15.6 nM
- IC50 (pSTAT5/GM-CSF): > 10000 nM

SMILES: COCCOc1ccc(-c2cnc(NC(C)=O)cc2Nc2cc(C(F)(F)F)cc(S(C)(=O)=O)c2)nc1 [Example D3, N-(5-(2-methoxyethoxy)-4′-((3-(methylsulfonyl)-5-(trifluoromethyl)phenyl)amino)-[2,3′-bipyridin]-6′-yl)acetamide]
- IC50 [1]: 0.08 nM
- Selectivity fold (TYK2/JAK2) [2]: >2083 fold
- IC50 [2]: 4.8 nM
- IC50 (pSTAT5/GM-CSF): > 10000 nM

SMILES: COCCOc1ccc(-c2cnc(NC(C)=O)cc2Nc2cc(C)cc(S(C)(=O)=O)n2)nc1 [Example D4, N-(5-(2-methoxyethoxy)-4′-((4-methyl-6-(methylsulfonyl)pyridin-2-yl)amino)-[2,3′-bipyridin]-6′-yl)acetamide]
- IC50 [1]: 0.044 nM
- Selectivity fold (TYK2/JAK2) [2]: >38167 fold
- IC50 [2]: 0.262 nM
- IC50 (pSTAT5/GM-CSF): > 10000 nM

SMILES: COCCOc1ccc(-c2cnc(NC(C)=O)cc2Nc2cc(OC)cc(S(C)(=O)=O)n2)nc1 [Example D5, N-(4′-((4-methoxy-6-(methylsulfonyl)pyridin-2-yl)amino)-5-(2-methoxyethoxy)-[2,3′-bipyridin]-6′-yl)acetamide]
- IC50 [1]: 0.036 nM
- Selectivity fold (TYK2/JAK2) [2]: >10101 fold
- IC50 [2]: 0.99 nM
- IC50 (pSTAT5/GM-CSF): > 10000 nM

SMILES: COCCOc1ccc(-c2cnc(NC(C)=O)cc2Nc2cc(OC(C)C)cc(S(C)(=O)=O)n2)nc1 [Example D6, N-(4′-((4-isopropoxy-6-(methylsulfonyl)pyridin-2-yl)amino)-5-(2-methoxyethoxy)-[2,3′-bipyridin]-6′-yl)acetamide]
- IC50 [1]: 0.025 nM
- Selectivity fold (TYK2/JAK2) [2]: >16863 fold
- IC50 [2]: 0.593 nM
- IC50 (pSTAT5/GM-CSF): > 10000 nM

SMILES: COCCOc1ccc(-c2cnc(NC(C)=O)cc2Nc2cc(OC[C@@H](C)OC)cc(S(C)(=O)=O)n2)nc1 [Example D7, (R)-N-(5-(2-methoxyethoxy)-4′-((4-(2-methoxypropoxy)-6-(methylsulfonyl)pyridin-2-yl)amino)-[2,3′-bipyridin]-6′-yl)acetamide]
- IC50 [1]: 0.031 nM
- Selectivity fold (TYK2/JAK2) [2]: >12422 fold
- IC50 [2]: 0.805 nM
- IC50 (pSTAT5/GM-CSF): > 10000 nM

SMILES: COCCOc1ccc(-c2cnc(NC(C)=O)cc2Nc2cc(OCCOC)cc(S(C)(=O)=O)n2)nc1 [Example D8, N-(5-(2-methoxyethoxy)-4′-((4-(2-methoxyethoxy)-6-(methylsulfonyl)pyridin-2-yl)amino)-[2,3′-bipyridin]-6′-yl)acetamide]
- IC50 [1]: 0.036 nM
- Selectivity fold (TYK2/JAK2) [2]: >22573 fold
- IC50 [2]: 0.443 nM
- IC50 (pSTAT5/GM-CSF): > 10000 nM

SMILES: CCOc1cc(Nc2cc(NC(C)=O)ncc2-c2ccc(OCCOC)cn2)nc(S(C)(=O)=O)c1 [Example D9, N-(4′-((4-ethoxy-6-(methylsulfonyl)pyridin-2-yl)amino)-5-(2-methoxyethoxy)-[2,3′-bipyridin]-6′-yl)acetamide]
- IC50 [1]: 0.021 nM
- Selectivity fold (TYK2/JAK2) [2]: >20876 fold
- IC50 [2]: 0.479 nM
- IC50 (pSTAT5/GM-CSF): > 10000 nM

SMILES: COCCOc1ccc(-c2cnc(NC(C)=O)cc2Nc2cc(OCC3CC3)cc(S(C)(=O)=O)c2)nc1 [Example D10, N-(4′-((3-(cyclopropylmethoxy)-5-(methylsulfonyl)phenyl)amino)-5-(2-methoxyethoxy)-[2,3′-bipyridin]-6′-yl)acetamide]
- IC50 [1]: 0.052 nM
- Selectivity fold (TYK2/JAK2) [2]: >789 fold
- IC50 [2]: 12.7 nM
- IC50 (pSTAT5/GM-CSF): > 10000 nM

SMILES: COCc1ccc(-c2cnc(NC(C)=O)cc2Nc2cccc(S(C)(=O)=O)c2)nc1 [Example E1, N-(5-(methoxymethyl)-4′-((3-(methylsulfonyl)phenyl)amino)-[2,3′-bipyridin]-6′-yl)acetamide]
- IC50 [1]: 0.022 nM
- Selectivity fold (TYK2/JAK2) [2]: >2197 fold
- IC50 [2]: 4.55 nM
- IC50 (pSTAT5/GM-CSF): > 10000 nM

SMILES: COCc1ccc(-c2cnc(NC(C)=O)cc2Nc2cc(C)cc(S(C)(=O)=O)n2)nc1 [Example E2, N-(5-(methoxymethyl)-4′-((4-methyl-6-(methylsulfonyl)pyridin-2-yl)amino)-[2,3′-bipyridin]-6′-yl)acetamide]
- IC50 [1]: 0.017 nM
- Selectivity fold (TYK2/JAK2) [2]: 17867 fold
- IC50 [2]: 0.325 nM
- IC50 (pSTAT5/GM-CSF): 5810 nM

SMILES: COCc1ccc(-c2cnc(NC(C)=O)cc2Nc2cc(OC[C@@H](C)OC)cc(S(C)(=O)=O)n2)nc1 [Example E3, (R)-N-(5-(methoxymethyl)-4′-((4-(2-methoxypropoxy)-6-(methylsulfonyl)pyridin-2-yl)amino)-[2,3′-bipyridin]-6′-yl)acetamide]
- IC50 [1]: 0.035 nM
- Selectivity fold (TYK2/JAK2) [2]: >15503 fold
- IC50 [2]: 0.645 nM
- IC50 (pSTAT5/GM-CSF): > 10000 nM

From US20240043435A1, “TYK-2 INHIBITOR” (BEIGENE, LTD., priority 2020, published 2024)
